Assay results reported in ChEMBL document CHEMBL6153043, “Anthelmintic Potential of Conjugated Long-Chain Fatty Acids Isolated from the Bioluminescent Mushroom Neonothopanus gardneri” (J Nat Prod, 2025).

Legend:
[1] = Selectivity index, ratio of CC50 for African green monkey Vero cells to EC50 for anti-schistosomal activity against female Schistosoma mansoni; format: toxicity, cell-based; conditions: read-out: Ratio CC50/EC50
[2] = Toxicity against L4 stage of Caenorhabditis elegans assessed as effect on viability by measuring mobility at 25 to 200 uM incubated for 24 hrs by inverted microscopic analysis; conditions: dose 25-200 µM
[3] = Selectivity index, ratio of CC50 for African green monkey Vero cells to EC50 for anti-schistosomal activity against male Schistosoma mansoni; format: toxicity, cell-based; conditions: read-out: Ratio CC50/EC50

Structure (SMILES) | selectivity ratio [1] | Activity [2] | selectivity ratio [3]
CCCCCCCC/C=C\[C@@H](O)[C@H](O)CCCCCC(=O)O | > 6.13 | Non-toxic | > 24.1
O=C(C1CCCCC1)N1CC(=O)N2CCc3ccccc3C2C1 (stereo not given) [PRAZIQUANTEL] | > 333 |  | > 250
